Values joined by “and” are separate entries in the source; they are usually repeats but may differ in a detail not shown here. Equal entries are not always repeated. Where two headings read alike, the source gives them in different places.
Experiments:
[1] = Thorough QT trial: dizziness as adverse event vs tmax; assay type: in vivo; conditions: human, plasma, oral; day 6 of SP640; range 1-4 h; read-out: tmax, time for maximum LCM plasma concentration (median)
Method: In a thorough QT trial safety profile of lacosamide (LCM) was characterized. During day 2-6 of multiple dose administration of an IR formulation (Vimpat®) of 200 or 400 mg LCM bid 45 times ‘DIZZINESS’ was detected as adverse event (AE). Time of onset was 1.4+/−0.8 h after actual administration of LCM. This corresponds exactly to the typical time for maximum LCM plasma concentration tmax (e.g., 1 h (median, range 1-4 h) at day 6 of SP640).

[2] = PK-PD modeling of seizure frequency (Emax model, Example 54); assay type: in vivo, human; conditions: human, plasma, read-out: Corresponding AUCτ,ss
Excerpt: (§1) Objectives of the PK-PD analysis were to evaluate and describe the correlation between the LCM plasma concentration over time (PK parameter) and the reduction of daily seizures over time (PD parameter) based on the pooled data from the previous clinical human trials.
(§2) The evaluation of PK-PD modeling was done based on the Emax model.
(§3) The slope of the linear regression is equal to the mean daily number of seizures.
(§4) In a first step, the validity of the developed equations for approximation of AUCτ,ss, the PK parameter of interest in the current PK-PD evaluation, was shown.
(§5) Based on the relative difference of the individual slopes during Titration and Maintenance Phase vs Baseline slope and the approximated AUCτ,ss,m, the PK-PD evaluation was performed using a linear model, the Emax model, and the Emax 100 model. […] Finally, the Emax model had the lowest weighted sum of squares and was therefore selected as the most appropriate PK-PD model to describe the data. […] The AUC50 is defined as the AUCτ,ss that is needed in individuals to achieve 50% of the maximum effect (decrease in seizure frequency).

[3] = system: subjects with partial-onset seizures; test: as above; assay type: in vivo, human
Excerpt: as §1, §2, §3, §4, §5

[4] = cited from earlier work
[5] = AUC of 67 μg/mL*h (mean dose 200 mg LCM bid)
[6] = Emax model, daily dose 50 mg bid (subject with Vd 50 L, ke 0.06 h^-1)
[7] = Emax model, daily dose 100 mg bid (subject with Vd 50 L, ke 0.06 h^-1)
[8] = Emax model, daily dose 110 mg bid (subject with Vd 50 L, ke 0.06 h^-1), AUC50
[9] = Emax model, daily dose 150 mg bid (subject with Vd 50 L, ke 0.06 h^-1)
[10] = Emax model, daily dose 200 mg bid (subject with Vd 50 L, ke 0.06 h^-1)
[11] = Emax model, daily dose 250 mg bid (subject with Vd 50 L, ke 0.06 h^-1)
[12] = Emax model, daily dose 300 mg bid (subject with Vd 50 L, ke 0.06 h^-1)

With `COC[C@@H](NC(C)=O)C(=O)NCc1ccccc1` [Lacosamide, (R)-2-Acetamido-N-benzyl-3-methoxypropionamide] the Tmax [1] was 1 h, the AUC ([2]; 50 mg) was 16700 ng·h/mL and the AUC ([2]; 100 mg) was 33300 ng·h/mL. The AUC ([2]; 110 mg) was 35900 ng·h/mL, the AUC ([2]; 150 mg) was 50000 ng·h/mL and the AUC ([2]; 200 mg) was 66700 ng·h/mL. The AUC ([2]; 250 mg) was 83300 ng·h/mL, the AUC ([2]; 300 mg) was 100000 ng·h/mL and the “decrease as percent of the maximum effect” value [3, 5] was 65%. For the same compound, the “decrease of the daily number of seizures” value [3, 5] was 46%, the “AUC50 (AUC needed to achieve half of the maximum effect), arithmetic mean (SD)” value ([3]; Emax model, N = 615 subjects) was 35.9 (185.6) μg/mL*h and the “AUC50, 1st quantile” value ([3]; Emax model, N = 615 subjects) was 0 µg·h/mL. The “AUC50, 3rd quantile” value ([3]; Emax model, N = 615 subjects) was 27.27 µg·h/mL, the “AUC50, median” value ([3]; Emax model, N = 615 subjects) was 1.05 µg·h/mL and the “AUC50, range” value ([3]; Emax model, N = 615 subjects) was 0 to 3998 µg·h/mL. The “Emax, 3rd quantile” value ([3]; Emax model, N = 615 subjects) was 100%, the “Emax, arithmetic mean (SD)” value ([3]; Emax model, N = 615 subjects) was 71.0 (30.0) % and the “Emax, median” value ([3]; Emax model, N = 615 subjects) was 77.0%. The “Emax, range” value ([3]; Emax model, N = 615 subjects) was 0.06-100%, the “Emax, maximum effect (reduction of the seizure frequency vs baseline)” value ([3]; Emax model, pooled clinical trials, adjunctive LCM) was 71% and the “AUC50 (AUC at steady-state to achieve half of the maximum decrease in partial seizure frequency), mean” value ([3]; Emax model, pooled clinical trials, listed as LCM) was 35 µg·h/mL and 35.9 µg·h/mL. The “Decrease of daily number of seizures, E(AUC) % of Emax” value (“Decrease … E(AUC) % of Emax” below) [3, 6] was 31.7 % of Emax, the “Decrease of daily number of seizures, E(AUC) % of base line” value (“Decrease … E(AUC) % of base line” for short) [3, 6] was 22.5 % of base line and the “Decrease … E(AUC) % of Emax” value [3, 7] was 48.1 % of Emax. The “Decrease … E(AUC) % of base line” value [3, 7] was 34.2 % of base line, the “Decrease … E(AUC) % of Emax” value [3, 8] was 50 % of Emax and the “Decrease … E(AUC) % of base line” value [3, 8] was 35.1 % of base line. For the same compound, the “Decrease … E(AUC) % of Emax” value [3, 9] was 58.2 % of Emax, the “Decrease … E(AUC) % of base line” value [3, 9] was 41.3 % of base line and the “Decrease … E(AUC) % of Emax” value [3, 10] was 65.0 % of Emax. For the same compound, the “Decrease … E(AUC) % of base line” value [3, 10] was 46.1 % of base line, the “Decrease … E(AUC) % of Emax” value [3, 11] was 69.9 % of Emax and the “Decrease … E(AUC) % of base line” value [3, 11] was 49.6 % of base line. For the same compound, the “Decrease … E(AUC) % of Emax” value [3, 12] was 73.6 % of Emax, the “Decrease … E(AUC) % of base line” value [3, 12] was 52.2 % of base line and the “decrease as percent of the maximum effect” value ([3]; in vivo) was 74%. The “decrease of the daily number of (partial) seizures” value ([3]; in vivo) was 52%, the “maximum dosage-normalized steady state plasma level (Cmax, ss, norm)” value ([4]; IR tablets twice daily, average distribution volume 50 litres) was 40 to 43 ng/mL/mg and the Tmax ([4]; IR tablets, after administration) was 1.4 to 1.5 h. The elimination half-life ([4]; in vivo) was 13 to 14 h and the bioavailability ([4]; oral) was about 100%.

Reference: patent US20150104507A1 (UCB PHARMA GMBH, priority 2010, published 2015)
